{
  "source": "paper PMC5845537",
  "about": "(Frontiers in Pharmacology, 2018)",
  "key": {"Long-Evans rats": {"system": "Long-Evans rats", "assay": "Attentional set-shifting task (AST) in subchronic PCP-treated rats", "type": "in vivo, rat", "protocol": "(§1) Subchronic PCP treatment: The subPCP administration regimen used in rats was conducted as described in ([Goetghebeur and Dias, 2009]), which is a reliable method for inducing deficits in our hands. Rats in the subPCP experiments received injections of 5 mg/mL PCP or vehicle (saline) s.c. at a 1 mL/kg injection volume twice per day for 7 days. […] The mouse subPCP regimen was conducted as described in [Pedersen et al. (2014)]. Briefly, mice received vehicle or PCP (1.3 mg/mL concentration, 10 mL/kg injection volume) s.c once per day for 14 days followed by a 7-day washout prior to experimentation.\nEach test used male Long-Evans rats (Charles River, United States) aged 5–6 weeks when arriving at the research facility.\nThe attentional set-shifting test (AST) methods used here were adapted from [Goetghebeur and Dias (2009)]. The apparatus used for the AST test was a 44 cm × 64 cm × 30 cm black non-transparent Perspex test box, divided into 3 equal-sized areas (a starting area separated from a choice area subdivided in two). In the choice area, two 11 cm diameter terracotta pots were placed recessed into the box floor (with a 2 cm lip remaining above the floor) and separated by a divider. Odor (oils from The Body Shop®, United Kingdom) and media cues (not previously presented to the rats) were added to the pots.\nBeginning on day 3 after the cessation of PCP administration, rats were subjected to a habituation period and trained to dig for a diet reward (half a Honey Loop cereal, Nestlé®) in terracotta pots filled with sawdust. On day 7 of PCP washout, rats were subjected to a single training session in which they were required to discriminate between two pots in order to find the reward. These discriminations were either based on differences in the digging media or the pot’s odor. On day 8 rats were presented with a series of increasingly difficult discriminations: a simple discrimination (SD), a compound discrimination (CD), two intra-dimensional shifts (ID1, ID2), an intra-dimensional shift reversal (ID2R), an extra-dimensional shift (ED) and an extra-dimensional shift reversal (EDR; see Table 1). Rats were required to meet a training criterion before moving on to a new discrimination type (for specifics, see Statistical Analysis, below).\nThe first trial of each discrimination stage was a discovery trial in which rats were allowed to dig in both pots, and to self-correct if digging in the wrong pot. Rats were only given one discovery trial. The discovery trial was included in the trials to criterion if the rat dug first in the correct pot, but not if the rat self-corrected an incorrect initial dig.\nIn the acute vortioxetine study, prior to the start of behavioral experiments on Day 8 of washout from PCP treatment, animals were randomly administered either 20% CD (Veh), […], or 64 mg/kg modafinil 30 min p.o. as described above (included as a positive control). Thus, the treatment groups in the acute vortioxetine study were as follows: Veh/Veh, PCP/Veh, PCP/1 mg/kg vortioxetine, PCP/3 mg/kg vortioxetine, PCP/10 mg/kg vortioxetine, or PCP/64 mg/kg modafinil.\nFood dosing lasted from the first day of sub-chronic PCP administration and until the last day of the washout period (total of 14 days). After the end of the washout period where behavioral testing started, rats were fed with the same conditioned diet, however, under food restriction (∼11 g of diet per day per rat). In addition, some PCP-treated animals were fed vehicle food, but received acute injections of either 10 mg/kg vortioxetine, or 64 mg/kg modafinil, as described above. The treatment groups for the subchronic vortioxetine administration study were as follows: Veh/Veh, PCP/Veh, PCP/0.22 g/kg vortioxetine food, PCP/1.8 g/kg vortioxetine food, PCP/10 mg/kg vortioxetine 1 h s.c., or PCP/64 mg/kg 30 min p.o.\nA third experiment was conducted to examine the effects of acute SERT inhibition or 5-HT3 receptor antagonism on subPCP-induced AST impairments. […]"}, "C57BL/6NCrlBr mice": {"system": "C57BL/6NCrlBr mice", "assay": "Mouse object recognition (OR) task after subchronic PCP", "type": "in vivo", "protocol": "as §1\nObject placement and OR tasks in mice were executed in Perspex boxes measuring 40 × 40 cm with dark gray walls and a white floor. The tests were conducted during the light phase, yet in a subdued light (≈20 lux) and with the radio turned on in the background. Each trial was recorder by a camera mounted above the test arenas and later scored manually.\nObjects in the mouse OP task consisted of small stork sculptures made of plaster, which were 11.5 cm in height, with a roughly rectangle-shaped base 7.5 cm in length and 4.8 cm in width. For the mouse OR task, objects consisted of (1) small cylindrical pepper mills (purchased empty, having never contained spice) made of clear plastic (10.5 cm in height, 4.5 cm diameter), and (2) small salt shakers made of light blue glass (again, purchased empty; 11.5 cm in height, 4.5 cm diameter). […]\nThe primary dependent measure for the OR and object placement tasks was a novel object or novel placement preference score, which were calculated from raw object investigation times using the following equation: Preference Score = ITN/(ITN + ITF)^∗100, where ITN represents the investigation time for the novel object or placement, and ITF represents the investigation for the familiar object or placement. Total exploration times from the information and test trials were analyzed for OP and OR experiments. Preference score and total exploration time data was analyzed for treatment group differences using a one-way between-subjects ANOVA. […]"}, "GABAA receptor": {"system": "GABAA receptor", "assay": "Ex vivo autoradiography, GABAA receptor competition binding ([3H]muscimol vs GABA), medial prefrontal cortex", "set-up": "species or system rat"}, "[1]": {"conditions": "subchronic vortioxetine study, subPCP vs Veh/Veh, p < 0.001"}, "[2]": {"conditions": "subchronic high-dose 1.8 g vortioxetine/kg food weight p.o., p < 0.001"}, "[3]": {"conditions": "subchronic low-dose 0.18 g vortioxetine/kg food weight p.o., p < 0.001"}, "[4]": {"conditions": "subchronic vortioxetine study, acute 10 mg/kg 1 h s.c., p < 0.001"}},
  "data": [
    {"smiles": "Cl.c1ccc(C2(N3CCCCC3)CCCCC2)cc1", "note": "[PCP, 1-(1-phenylcyclohexyl)-piperidine hydrochloride]", "values": [
      {"measurement": "trials to reach criterion, EDR discrimination", "setting": "Long-Evans rats; acute vortioxetine study, subPCP/vehicle vs vehicle/vehicle", "result": "significant increases"},
      {"measurement": "trials to reach criterion, ED discrimination", "setting": "Long-Evans rats; acute vortioxetine study, subPCP/vehicle vs vehicle/vehicle, PCP 5 mg/kg s.c. twice per day 7 days, 7-day washout, p < 0.01", "result": "significant increase"},
      {"measurement": "trials to reach criterion, EDR discrimination", "setting": "Long-Evans rats; ondansetron/escitalopram study, subPCP vs vehicle/vehicle", "result": "failed to induce a significant increase"},
      {"measurement": "trials to reach criterion, ED discrimination", "setting": "Long-Evans rats; ondansetron/escitalopram study, subPCP vs vehicle/vehicle, p < 0.001", "result": "significant increase"},
      {"measurement": "trials to reach criterion, ED discrimination", "setting": "Long-Evans rats; [1]", "result": "significant increase"},
      {"measurement": "trials to reach criterion, EDR discrimination", "setting": "Long-Evans rats; [1]", "result": "significant increase"},
      {"measurement": "novel object preference score", "setting": "C57BL/6NCrlBr mice; subPCP/veh vs control mice, PCP 13 mg/kg s.c. once per day 14 days, 7-day washout, p < 0.001", "result": "significantly lower novel object preference scores"},
      {"measurement": "effect of treatment on GABA pKi at the GABAA receptor", "setting": "GABAA receptor; subPCP treatment on its own", "result": "did not significantly alter"}
    ]},
    {"smiles": "Cc1ccc(Sc2ccccc2N2CCNCC2)c(C)c1", "note": "[vortioxetine]", "values": [
      {"measurement": "reversal of subPCP-induced impairment, ED discrimination (trials to criterion)", "setting": "Long-Evans rats; acute vortioxetine study, 1 mg/kg 1 h s.c., vs PCP/Veh", "result": "significantly reversed"},
      {"measurement": "reversal of subPCP-induced impairment, ED discrimination (trials to criterion)", "setting": "Long-Evans rats; acute vortioxetine study, 3 mg/kg 1 h s.c., vs PCP/Veh", "result": "significantly reversed"},
      {"measurement": "reversal of subPCP-induced impairment, ED discrimination (trials to criterion)", "setting": "Long-Evans rats; acute vortioxetine study, 10 mg/kg 1 h s.c., vs PCP/Veh", "result": "significantly reversed"},
      {"measurement": "reversal of subPCP-induced impairment, EDR discrimination (trials to criterion)", "setting": "Long-Evans rats; acute vortioxetine study, acute 1, 3, 10 mg/kg 1 h s.c., vs PCP/Veh", "result": "neither acute vortioxetine nor modafinil significantly reversed"},
      {"measurement": "attenuation of subPCP-induced impairment, ED discrimination", "setting": "Long-Evans rats; [2]", "result": "significantly attenuated"},
      {"measurement": "attenuation of subPCP-induced impairment, EDR discrimination", "setting": "Long-Evans rats; [2]", "result": "significantly attenuated"},
      {"measurement": "attenuation of subPCP-induced impairment, ED discrimination", "setting": "Long-Evans rats; [3]", "result": "significantly attenuated"},
      {"measurement": "attenuation of subPCP-induced impairment, EDR discrimination", "setting": "Long-Evans rats; [3]", "result": "significantly attenuated"},
      {"measurement": "normalization of AST performance in subPCP-treated rats, ED", "setting": "Long-Evans rats; [4]", "result": "significant normalization"},
      {"measurement": "normalization of AST performance in subPCP-treated rats, EDR", "setting": "Long-Evans rats; [4]", "result": "significant normalization"},
      {"measurement": "novel object preference score, vehicle/vortioxetine vs vehicle/vehicle", "setting": "C57BL/6NCrlBr mice; mice without PCP, 10 mg/kg s.c. bolus then 0.6 g/kg chow", "result": "no statistically significant difference"},
      {"measurement": "novel object preference score vs subPCP/vehicle", "setting": "C57BL/6NCrlBr mice; subPCP/vortioxetine mice, 10 mg/kg s.c. bolus then 0.6 g/kg chow, p < 0.01", "result": "significantly higher novel object preference scores"},
      {"measurement": "GABA pKi at the GABAA receptor, PCP/vortioxetine vs vehicle/vortioxetine group", "setting": "GABAA receptor; subchronic vortioxetine combined with subPCP, p < 0.01", "result": "significantly lower"},
      {"measurement": "increase in the affinity of GABA for the GABAA receptor", "setting": "GABAA receptor; vehicle/vortioxetine vs saline/vehicle group, subchronic 1.8 g vortioxetine/kg food, p < 0.01", "result": "approximately 2.5 fold"}
    ]}
  ]
}
